# Source: PMC8619046, “ABCB1 and ABCG2 Control Brain Accumulation and Intestinal Disposition of the Novel ROS1/TRK/ALK Inhibitor Repotrectinib, While OATP1A/1B, ABCG2, and CYP3A Limit Its Oral Availability” (Pharmaceutics, 2021)
# Like-named read-outs stand apart in the source and are kept apart here.
# Test system: T1, human ABCG2
# T1 construct: expressed in transfected cells; host or cells: MDCK-II cells stably transduced with hABCG2 cDNA (made in the authors' institute)
# Assay: Transepithelial transport, MDCK-II cells transduced with hABCG2
# Assay type: in vitro ADME
# Conditions: MDCK-II hABCG2, 5 µM, read-out: efflux transport ratio r
# Excerpt: Polarized Madin-Darby Canine Kidney (MDCK-II) cells (ECACC 00062107) stably transduced with either human (h) ABCB1, hABCG2 or mouse (m) Abcg2 cDNA were generated in our institute between 1995–2005. The proper identity and functionality, such as highly characteristic growth and drug transporter properties, including inhibitor sensitivity, were regularly checked in these epithelial cells. Mycoplasma routinely tested negative in these cells. The passage number was 10–15 when used in the transport experiments.
# Transepithelial transport experiments were performed as previously described with 12-well plates (Transwell 3414, Corning Inc., Kennebunk, ME, USA) containing microporous polycarbonate membrane filters (3.0 µm pore size, 12 mm diameter). […]
# After pre-incubation with 5 µM zosuquidar (ABCB1 inhibitor) and/or 5 µM Ko143 (ABCG2/Abcg2 inhibitor) in both compartments (when appropriate) for 1 h, the transport phase was initiated (t = 0) by replacing the medium in apical and basolateral compartments with fresh DMEM with 10% FBS and the appropriate inhibitor(s), and repotrectinib at 5 µM in the donor compartment. […] The active transport ratio r, calculated by dividing the amount of apically directed drug transport by basolaterally directed drug translocation after 8 h, was used to assess active transport of repotrectinib.
compound,measurement,setting,value
C[C@H]1CNC(=O)c2cnn3ccc(nc23)N[C@H](C)c2cc(F)ccc2O1 [repotrectinib],"efflux ratio at 8 h, 5 µM","pH 7.4, with zosuquidar 5 µM + Ko143 5 µM, + zosuquidar 5 µM + Ko143 5 µM",0.95
same,"efflux ratio at 8 h, 5 µM","pH 7.4, with zosuquidar 5 µM, + zosuquidar 5 µM",5.6
